Test results from article PMC4297530 (Biological psychiatry, 2014).

Assays:
[1] = system: histone acetylation in brain; conditions: at the dose used in present study (5 mg/kg i.p.); cited from earlier work
[2] = system: plasma corticosterone (HPA axis); test: Combined DEX/CRF test, plasma corticosterone; type: in vivo, mouse
[3] = system: GR translocation in RN46A-B14 cells; test: DEX-induced GR-GFP translocation, high-content imaging; type: cell-based, rat; conditions: 2.5 μM for 1 hour, then 1 μM DEX 30 min, p<0.05 vs. vehicle
[4] = system: Hsp90 / α-tubulin acetylation and Hsp90-FKBP51/52 association; test: Co-immunoprecipitation and acetylation blots in RN46 serotonin cell line; type: cell-based, rat; conditions: 2.5 uM, RN46 cells, vs vehicle

Structure (SMILES) | histone acetylation in brain [1] | CORT response following DEX/CRF challenge ([2]; chronic ACY-738 treatment, data not shown) | GR translocation induced by dexamethasone [3] | association of Hsp90 with FKBP51 ([4]; co-IP) | interaction of Hsp90 with FKBP52 ([4]; co-IP) | acetylation of α-tubulin ([4]; input samples) | acetylation of Hsp90 at lysine 294 [4] | percent change in plasma corticosterone, resilient mice ([2]; 6 hours after DEX 0.05 mg/kg, CSDS resilient mice) [%] | percent change in plasma corticosterone, control mice ([2]; 6 hours after DEX 0.05 mg/kg, undefeated control mice) [%]
O=C(NO)c1cnc(NC2(c3ccccc3)CC2)nc1 [ACY-738] | does not elevate | did not alter | significantly reduced | increased association | reduced interaction | increase | increased acetylation | – | –
CN1CCc2c(c3ccccc3n2Cc2ccc(C(=O)NO)cc2)C1 [Tubastatin A] | – | – | significantly reduced | – | – | – | – | – | –
C[C@@H]1C[C@H]2[C@@H]3CCC4=CC(=O)C=C[C@]4(C)[C@@]3(F)[C@@H](O)C[C@]2(C)[C@@]1(O)C(=O)CO [dexamethasone] | – | – | – | – | – | – | – | −34 | −13
